What was measured:
[1] = system: CD4 on peripheral blood cell; assay: Effects on the expression of CD4 on peripheral blood cell in mice (flow cytometry); format: in vivo, mice (C57 BL/6); details: intragastric, once a day for four days, mouse peripheral blood
Protocol: (§1) FITC Rat Anti-Mouse CD8a: BD, Cat. #553030.
(§2) PE Rat Anti-Mouse CD4: BD, Cat. #557308.
(§3) APC Rat Anti-Mouse CD19: BD, Cat. #561738.
(§4) The compounds used in the test were prepared by the chemical department of Beijing Forelandpharma Co. Ltd.
(§5) Routs of administration: intragastric administration, once a day, and continuous administration for four days.
(§6) After the administration, supraorbital venous blood was collected from the mouse, added to an EP tube (1.5 ml) containing an anticoagulant, and kept on the ice. The resulting mixture was transferred to a test tube, centrifuged at 4° C. and 1200 rpm/min for 5 min, removed with the supernatant liquid, added with a lysate, processed with cell lysis on the ice for 5 min, then pre-dyed, added with diluted antibody, and incubated away from light for 30 min. After the incubation, the resulting mixture was washed, removed with the supernatant liquid, added with stationary liquid, and kept in a refrigerator at 4° C. away from light for the test of flow cytometry.

[2] = system: CD8 on peripheral blood cell; assay: Effects on the expression of CD8 on peripheral blood cell in mice (flow cytometry); format: in vivo, mice (C57 BL/6); details: intragastric, once a day for four days, mouse peripheral blood
Protocol: as §1, §2, §3, §4, §5, §6

[3] = system: CD19 on peripheral blood cell; assay: Effects on the expression of CD19 on peripheral blood cell in mice (flow cytometry); format: in vivo, mice (C57 BL/6); details: intragastric, once a day for four days, mouse peripheral blood
Protocol: as §1, §2, §3, §4, §5, §6

S1P1 = S1P1 (Homo sapiens (Human), UniProt P21453); assay: PathHunter β-arrestin test S1P1; format: cell-based; details: PathHunter β-arrestin engineering cells
Protocol: (§7) 1. PathHunter β-arrestin testing system was used to detect the biological activity of the compounds.
(§8) 2. β-arrestin engineering cells were cultured on […] culture plates and placed in an incubator at 37° C.
(§9) 3. The sample to be tested was diluted with reaction solution in 5-fold dilution.
(§10) 4. The diluted sample to be tested was added to the engineering cells and the reaction was induced and observed.
(§11) 5. The chemiluminescence signal produced in the test may be detected by multifunctional enzyme marker (PerkinElmer Envision™).
(§12) Test Analysis and Results
(§13) 6. The data obtained was analyzed using the data analysis software of CBIS (ChemInnovation, CA) to achieve EC50, and the test results are shown in Table 2.

S1P2 = S1P2 (Homo sapiens (Human), UniProt O95136); assay: PathHunter β-arrestin test S1P2; format: cell-based; details: PathHunter β-arrestin engineering cells
Protocol: as §7, §8, §9, §10, §11, §12, §13

S1P3 = S1P3 (Homo sapiens (Human), UniProt Q99500); assay: PathHunter β-arrestin test S1P3; format: cell-based; details: PathHunter β-arrestin engineering cells
Protocol: as §7, §8, §9, §10, §11, §12, §13

S1P4 = S1P4 (Homo sapiens (Human), UniProt O95977); assay: PathHunter β-arrestin test S1P4; format: cell-based; details: PathHunter β-arrestin engineering cells
Protocol: as §7, §8, §9, §10, §11, §12, §13

S1P5 = S1P5 (Homo sapiens (Human), UniProt Q9H228); assay: Fluorescence detection FLIPR assay, activation of GPCR (S1P5); format: cell-based; details: total detection time 180 s, read-out: FLIPR Test EC50 S1P5
Protocol: The sample to be tested was dissolved in DMSO and diluted with detection buffer solution in 3-fold dilution. A reagent and a positive control were diluted in the same way.
The reactions of the agonist, the reagent and the positive control were detected by a device of […] with a total detection time of 180 s to estimate the ability to activate GPCR (S1P5) of each compound.

hERG potassium channel = hERG potassium channel (Homo sapiens (Human), UniProt Q12809); assay: hERG patch clamp test in HEK293 engineering cells; format: cell-based; details: HEK293 cells stably expressing hERG potassium channel
Protocol: 1. HEK293 engineering cells stably expressed with hERG potassium channel were used to test the compounds.
The cells were separated by TrypLE™ Express before the test. 3×10^3 of cells were spread on a cover plate, cultured in 24-well plate and tested 18 hours later. The signals produced by voltage stimulation of potassium currents in cells were recorded by electrophysiological techniques.
Data Analysis and Results
First of all, currents after the action of drug of each concentration and blank control were standardized separately
[formula] and then the corresponding inhibition ratio of each concentration was calculated
[formula] The average and the standard error were calculated for each concentration, and 50% inhibiting concentration of each compound was calculated according to the following equation: […]
The dose-dependent effect was obtained through nonlinear fitting with the equation above. C refers to drug concentration, IC50 refers to 50% inhibiting concentration and h refers to hill coefficient. The curve fitting and the calculation of IC50 were processed by IGOR software.

S1P5, sequence (Q9H228 whole entry, species assumed): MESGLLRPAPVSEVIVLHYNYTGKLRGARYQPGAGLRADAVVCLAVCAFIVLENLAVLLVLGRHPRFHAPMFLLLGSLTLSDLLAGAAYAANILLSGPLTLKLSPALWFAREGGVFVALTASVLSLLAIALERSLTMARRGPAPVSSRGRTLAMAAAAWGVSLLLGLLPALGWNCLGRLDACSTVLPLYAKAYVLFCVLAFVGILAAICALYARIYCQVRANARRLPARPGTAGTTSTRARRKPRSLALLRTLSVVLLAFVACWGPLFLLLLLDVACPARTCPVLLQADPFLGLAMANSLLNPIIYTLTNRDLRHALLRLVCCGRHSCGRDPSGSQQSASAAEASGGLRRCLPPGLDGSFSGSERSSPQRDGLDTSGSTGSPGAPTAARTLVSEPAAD
S1P4, sequence (O95977 whole entry, species assumed): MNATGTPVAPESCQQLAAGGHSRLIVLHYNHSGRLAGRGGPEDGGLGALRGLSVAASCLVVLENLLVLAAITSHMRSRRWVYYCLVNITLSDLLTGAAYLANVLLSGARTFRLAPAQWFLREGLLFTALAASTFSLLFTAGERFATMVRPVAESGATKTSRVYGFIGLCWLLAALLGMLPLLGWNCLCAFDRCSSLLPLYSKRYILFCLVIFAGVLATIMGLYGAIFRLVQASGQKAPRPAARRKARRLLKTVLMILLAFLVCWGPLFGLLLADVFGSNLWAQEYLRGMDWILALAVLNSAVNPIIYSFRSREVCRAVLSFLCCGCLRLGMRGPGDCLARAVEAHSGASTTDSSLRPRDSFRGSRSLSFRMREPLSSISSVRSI
hERG potassium channel, sequence (Q12809 whole entry): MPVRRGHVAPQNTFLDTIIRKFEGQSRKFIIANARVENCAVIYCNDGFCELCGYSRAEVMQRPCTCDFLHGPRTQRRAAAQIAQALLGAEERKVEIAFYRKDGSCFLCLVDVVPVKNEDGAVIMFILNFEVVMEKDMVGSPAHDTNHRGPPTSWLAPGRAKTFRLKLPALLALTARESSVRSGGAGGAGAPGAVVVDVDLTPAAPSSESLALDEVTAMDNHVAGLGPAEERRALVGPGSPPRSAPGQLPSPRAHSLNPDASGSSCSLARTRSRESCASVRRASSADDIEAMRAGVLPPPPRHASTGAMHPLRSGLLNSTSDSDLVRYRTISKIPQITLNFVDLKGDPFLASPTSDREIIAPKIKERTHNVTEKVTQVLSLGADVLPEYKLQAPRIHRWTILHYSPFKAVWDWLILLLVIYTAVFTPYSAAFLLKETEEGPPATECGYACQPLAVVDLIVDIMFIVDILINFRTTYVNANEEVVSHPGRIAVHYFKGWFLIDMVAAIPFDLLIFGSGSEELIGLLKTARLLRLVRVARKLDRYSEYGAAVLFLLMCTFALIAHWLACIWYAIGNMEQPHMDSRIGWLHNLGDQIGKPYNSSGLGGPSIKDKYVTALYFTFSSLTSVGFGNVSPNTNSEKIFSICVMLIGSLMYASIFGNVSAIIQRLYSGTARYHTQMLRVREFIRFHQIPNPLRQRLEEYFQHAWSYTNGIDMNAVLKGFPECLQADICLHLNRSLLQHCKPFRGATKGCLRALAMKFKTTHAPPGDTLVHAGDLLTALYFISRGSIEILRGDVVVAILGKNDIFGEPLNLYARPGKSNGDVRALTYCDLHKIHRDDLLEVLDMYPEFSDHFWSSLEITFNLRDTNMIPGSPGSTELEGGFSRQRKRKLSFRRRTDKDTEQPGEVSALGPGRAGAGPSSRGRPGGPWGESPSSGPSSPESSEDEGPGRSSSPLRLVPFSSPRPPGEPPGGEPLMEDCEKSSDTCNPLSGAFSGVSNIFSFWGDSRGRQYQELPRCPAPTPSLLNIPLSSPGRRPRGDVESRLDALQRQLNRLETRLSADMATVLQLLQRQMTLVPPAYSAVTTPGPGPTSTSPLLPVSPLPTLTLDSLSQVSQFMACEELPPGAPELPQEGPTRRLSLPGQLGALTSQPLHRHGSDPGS
S1P1, sequence (P21453 whole entry, species assumed): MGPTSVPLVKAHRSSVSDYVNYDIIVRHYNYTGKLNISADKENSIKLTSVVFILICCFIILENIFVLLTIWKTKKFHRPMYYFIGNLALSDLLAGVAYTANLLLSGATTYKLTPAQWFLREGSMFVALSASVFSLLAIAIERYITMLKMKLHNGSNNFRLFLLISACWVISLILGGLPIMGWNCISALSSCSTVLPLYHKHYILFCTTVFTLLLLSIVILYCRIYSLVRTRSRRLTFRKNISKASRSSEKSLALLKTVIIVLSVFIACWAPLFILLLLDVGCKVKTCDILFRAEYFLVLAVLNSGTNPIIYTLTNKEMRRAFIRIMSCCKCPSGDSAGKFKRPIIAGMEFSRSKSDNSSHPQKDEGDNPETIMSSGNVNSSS
S1P2, sequence (O95136 whole entry, species assumed): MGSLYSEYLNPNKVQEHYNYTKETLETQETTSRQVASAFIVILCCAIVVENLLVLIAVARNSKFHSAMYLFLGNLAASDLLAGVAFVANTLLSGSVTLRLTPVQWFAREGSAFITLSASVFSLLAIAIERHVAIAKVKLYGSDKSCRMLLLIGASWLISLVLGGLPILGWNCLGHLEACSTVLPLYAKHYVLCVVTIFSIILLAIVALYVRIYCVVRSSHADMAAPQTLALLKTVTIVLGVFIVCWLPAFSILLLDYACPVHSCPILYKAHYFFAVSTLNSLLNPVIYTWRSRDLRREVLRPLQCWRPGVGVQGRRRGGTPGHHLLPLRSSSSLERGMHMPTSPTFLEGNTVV
S1P3, sequence (Q99500 whole entry, species assumed): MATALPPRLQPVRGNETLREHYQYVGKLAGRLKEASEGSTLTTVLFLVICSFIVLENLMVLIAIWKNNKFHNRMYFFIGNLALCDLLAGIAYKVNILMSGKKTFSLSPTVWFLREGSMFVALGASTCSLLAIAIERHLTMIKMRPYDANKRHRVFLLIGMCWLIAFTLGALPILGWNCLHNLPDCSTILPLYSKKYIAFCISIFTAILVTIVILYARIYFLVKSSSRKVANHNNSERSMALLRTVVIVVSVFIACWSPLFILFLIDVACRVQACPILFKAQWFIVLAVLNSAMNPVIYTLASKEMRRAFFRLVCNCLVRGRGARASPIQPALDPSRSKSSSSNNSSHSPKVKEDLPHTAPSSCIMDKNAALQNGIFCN

CC(C)Oc1ccc(-c2nnc(-c3ccc4c(c3)C[C@](N)(CO)CC4)o2)cc1F [Example 1, (S)-(2-amino-7-(5-(3-fluoro-4-isopropoxyphenyl)-1,3,4-oxadiazol-2-yl)-1,2,3,4-tetrahydronaphthalen-2-yl)methanol]
CD4 (%) ([1]; 1 mg/kg): 10.9%
CD4 (%) ([1]; 5 mg/kg): 1.2%
CD8 (%) ([2]; 1 mg/kg): 10.0%
CD8 (%) ([2]; 5 mg/kg): 1.8%
CD19 (%) ([3]; 1 mg/kg): 39.0%
CD19 (%) ([3]; 5 mg/kg): 17.5%

N[C@@]1(CO)CCc2ccc(-c3nnc(-c4ccc5c(c4)OCO5)o3)cc2C1 [Example 2]
CD4 (%) ([1]; 1 mg/kg): 23.1%
CD4 (%) ([1]; 5 mg/kg): 16.4%
CD8 (%) ([2]; 1 mg/kg): 13.0%
CD8 (%) ([2]; 5 mg/kg): 8.6%
CD19 (%) ([3]; 1 mg/kg): 44.8%
CD19 (%) ([3]; 5 mg/kg): 35.2%

CC(C)Oc1ccc(-c2nnc(-c3ccc4c(c3)C[C@](N)(CO)CC4)o2)cc1C#N [Example 3, (S)-5-(5-(7-amino-7-(hydroxymethyl)-5,6,7,8-tetrahydronaphthalen-2-yl)-1,3,4-oxadiazol-2-yl)-2-isopropoxybenzonitrile]
CD4 (%) ([1]; 1 mg/kg): 22.1%
CD4 (%) ([1]; 5 mg/kg): 7.2%
CD8 (%) ([2]; 1 mg/kg): 11.9%
CD8 (%) ([2]; 5 mg/kg): 6.1%
CD19 (%) ([3]; 1 mg/kg): 39.3%
CD19 (%) ([3]; 5 mg/kg): 24.7%
EC50 (S1P1): 4.56 nM
EC50 (S1P2): > 100 µM
EC50 (S1P3): 2110 nM
EC50 (S1P4): > 100 µM
EC50 (S1P5): 250 nM
IC50 (hERG potassium channel): 7.8 µM

CC(C)Oc1ccc(-c2nnc(-c3ccc4c(c3)C[C@](N)(CO)CC4)o2)cc1C(N)=O [Example 4, (S)-5-(5-(7-amino-7-(hydroxymethyl)-5,6,7,8-tetrahydronaphthalen-2-yl)-1,3,4-oxadiazol-2-yl)-2-isopropoxybenzamide]
CD4 (%) ([1]; 1 mg/kg): 27.1%
CD4 (%) ([1]; 5 mg/kg): 27.0%
CD8 (%) ([2]; 1 mg/kg): 14.5%
CD8 (%) ([2]; 5 mg/kg): 12.3%
CD19 (%) ([3]; 1 mg/kg): 47.1%
CD19 (%) ([3]; 5 mg/kg): 43.6%

N#Cc1cc(-c2nnc(-c3ccc4c(c3)C[C@](N)(CO)CC4)o2)ccc1O [Example 5, (S)-5-(5-(7-amino-7-(hydroxymethyl)-5,6,7,8-tetrahydronaphthalen-2-yl)-1,3,4-oxadiazol-2-yl)-2-hydroxybenzonitrile]
CD4 (%) ([1]; 1 mg/kg): 31.5%
CD4 (%) ([1]; 5 mg/kg): 27.1%
CD8 (%) ([2]; 1 mg/kg): 16.8%
CD8 (%) ([2]; 5 mg/kg): 14.7%
CD19 (%) ([3]; 1 mg/kg): 44.3%
CD19 (%) ([3]; 5 mg/kg): 43.8%

COc1ccc(-c2nnc(-c3ccc4c(c3)C[C@](N)(CO)CC4)o2)cc1C(F)(F)F [Example 6, (S)-(2-amino-7-(5-(4-methoxy-3-(trifluoromethyl)phenyl)-1,3,4-oxadiazol-2-yl)-1,2,3,4-tetrahydronaphthalen-2-yl)methanol]
CD4 (%) ([1]; 1 mg/kg): 17.8%
CD4 (%) ([1]; 5 mg/kg): 8.7%
CD8 (%) ([2]; 1 mg/kg): 17.0%
CD8 (%) ([2]; 5 mg/kg): 5.7%
CD19 (%) ([3]; 1 mg/kg): 34.0%
CD19 (%) ([3]; 5 mg/kg): 29.1%

N[C@@]1(CO)CCc2ccc(-c3nnc(-c4ccc(F)c(F)c4)o3)cc2C1 [Example 7, (S)-(2-amino-7-(5-(3,4-difluorophenyl)-1,3,4-oxadiazol-2-yl)-1,2,3,4-tetrahydronaphthalen-2-yl)methanol]
CD4 (%) ([1]; 1 mg/kg): 26.5%
CD4 (%) ([1]; 5 mg/kg): 13.4%
CD8 (%) ([2]; 1 mg/kg): 14.5%
CD8 (%) ([2]; 5 mg/kg): 9.2%
CD19 (%) ([3]; 1 mg/kg): 45.2%
CD19 (%) ([3]; 5 mg/kg): 40.6%

From US11584726B2 (Beijing Foreland Pharma Co., Ltd., priority 2017, dated 2023)
